The values below come from patent US20210337789A1, “Derivatives of m-Guaiacol, Their Preparation and Their Uses” (Universite de Caen Normandie, priority 2018, published 2021).

Structures are written as SMILES. Like-named read-outs stand apart in the source and are kept apart here.

In assay [1] the test system is KB cells (epidermoid carcinoma). The experiment in a line: In vitro cytotoxicity, cell proliferation test (MTS) on KB cells. The assay is classed as cell-based. The conditions noted are these: Homo sapiens, read-out: percentage of inhibition of cell growth. As for the experimental part: The human cell strain KB (epidermoid carcinoma) was obtained from the NCI (National Cancer Institute) and cultivated in the D-MEM medium added with 10% of foetal bovine serum (Invitrogen) in the presence of penicillin, streptomycin and fungizone in flasks of […] under CO2 at 5%. The cells were deposited on tissue culture microplates with 96 wells and a density of 650 cells/well in 200 μl of medium and treated 24 hours later with compounds of the invention dissolved in DMSO at concentrations going from 0.5 nM to 10 μM using a Biomek 3000 (Beckman-Coulter) automaton. The controls received the same volume of DMSO (1% of final volume). After 72 hours of exposure, the MTS reagent (Celltiter 96Aqueous One solution, Promega) was added and incubated for 3 hours at 37° C.: the absorbance was measured at 490 nm and the results of inhibition of the cell proliferation were calculated according to the ratio [(1−(OD490treated/OD490control))×100].
Results: Cytotoxicity at 10^−5 and 10^−6M on Triplicate KB Cells, Measured after 72 Hours of Exposure.
The percentage of inhibition of cell growth with respect to the cells receiving the same quantity of DMSO is outlined in the table below.

In assay [2] the test system is Staphylococcus aureus. The assay can be described thus: Bacterial growth screening on wild-type phenotype strain, S. aureus. Type of assay: cell-based. How it is done: (§1) The bacterial growth is evaluated by measuring the optical density (DO) at 600 nm using NanoDrop.
(§2) This ratio permits a classification of the molecules in 4 effect levels: • 0=no effect observed; • 1=effect observed only when the molecule is tested pure; • 2=effect observed at several concentrations, but which gradually decreases the dilutions; • 3=strong effect observed at each concentration of molecule tested.
(§3) A screening of molecules of the invention on several wild-type phenotype strains has been carried out.
(§4) The strains initially selected are: • Gram+: Streptococcus equi subsp zooepidemicus and Staphylococcus aureus • Gram−: Escherichia coli, Klebsiella pneumoniae and Stenotrophomonas maltophila.

In assay [3] the test system is Klebsiella pneumoniae. The assay can be described thus: Bacterial growth screening on wild-type phenotype strain, K. pneumoniae. Type of assay: cell-based. How it is done:
as §1, §2, §3, §4

For assay [4], the system named is Streptococcus equi subsp zooepidemicus. The experiment in a line: Bacterial growth screening on wild-type phenotype strain, S. zooepidemicus. Type of assay: cell-based. How it is done: as §1, §2, §3, §4
In assay [5] the test system is Escherichia coli. The assay can be described thus: Bacterial growth screening on wild-type phenotype strain, E. coli. The assay is classed as cell-based. As for the experimental part:
as §1, §2, §3, §4

Assay [6] concerns Micrococcus luteus reference strain. The experiment in a line: Bacterial growth (optical density at 600 nm) on Micrococcus luteus reference strain. Type of assay: cell-based. Also noted: key: 0 = no effect, 1 = pure only, 2 = several concentrations, 3 = strong at all. Particulars: in DMSO diluted in PBS, compared with triclosan. As for the experimental part:
as §1, §2
The molecules are put in a solution in DMSO and diluted in PBS.

Assay [7] deals with Stenotrophomonas maltophila. The assay can be described thus: Bacterial growth screening on wild-type phenotype strain, S. maltophila. Type of assay: cell-based. As for the experimental part: as §1, §2, §3, §4
Assay [8] relates to S. aureus strains presenting high levels of resistance. The experiment in a line: Bacterial growth on S. aureus strains presenting high levels of resistance. Particulars: for Δ DO: 0.1 mg/ml; for Effects (0 < 1 < 2 < 3): molecules at 1, 0.5 and 0.1 mg/ml, triclosan at 0.1 mg/ml. Type of assay: cell-based, Staphylococcus aureus. As for the experimental part: as §1, §2
(§5) Compounds of the invention were tested on 4 strains of E. coli, 3 strains of K. pneumoniae and 4 strains of S. aureus with the resistance profiles below.

Assay [9] has as its system K. pneumoniae strains presenting high levels of resistance. The experiment in a line: Bacterial growth on K. pneumoniae strains presenting high levels of resistance. Type of assay: cell-based, Klebsiella pneumoniae. Particulars: for Δ DO: 0.1 mg/ml; for Effects (0 < 1 < 2 < 3): molecules at 1, 0.5 and 0.1 mg/ml, triclosan at 0.1 mg/ml. As for the experimental part: as §1, §2, §5

Assay [10] deals with E. coli strains presenting high levels of resistance. The experiment in a line: Bacterial growth on E. coli strains presenting high levels of resistance. Type of assay: cell-based, Escherichia coli. The conditions noted are these: for Δ DO: 0.1 mg/ml; for Effects (0 < 1 < 2 < 3): molecules at 1, 0.5 and 0.1 mg/ml, triclosan at 0.1 mg/ml. As for the experimental part:
as §1, §2, §5

Setting [11] is: 10^−5 M, KB cells, triplicate, 72 hours of exposure, with respect to DMSO control.
The mark [12] stands for this setting: 10^−6 M, KB cells, triplicate, 72 hours of exposure, with respect to DMSO control.

With `COc1cc(O)c(Cl)c(Br)c1F` [sr7614], the inhibition (in general, the share of the control response that was lost under treatment) at 10 µM in [1] (setting [11]) came to 6 ± 4%. Further, in assay [1] (setting [12]), the inhibition at 1 µM was found to be 0%. The “Effect level, S. aureus” value in assay [2] was found to be 2. Moreover, the “Effect level, K. pneumoniae” value in assay [3] turned out to be 2. Moreover, the “Effect level, S. zooepidemicus” value in assay [4] is 2. Also, in assay [5], the “Effect level, E. coli” value stood at 3. Also, in assay [6], the Effect level was determined as 3. Further, in assay [7], the “Effect level, S. maltophila” value amounted to 2.

Consider `COc1c(Cl)c(O)c(Cl)c(F)c1Cl` [sr7587], for which the inhibition at 10 µM in assay [1] (setting [11]) worked out at 0%. Also, the inhibition at 1 µM in assay [1] (setting [12]) turned out to be 8 ± 4%.

Turning to `COc1cc(O)c(F)cc1Cl` [sr7580], in assay [1] (setting [11]), the inhibition at 10 µM was found to be 16 ± 4%. Also, in assay [1] (setting [12]), the inhibition at 1 µM is 5 ± 8%.

Turning to `COc1cc(O)c(Cl)c(F)c1F` [sr7610], the Effect level in [6] amounted to 2.

`Oc1cc(I)c(F)cc1F` [sr7618]: in [6], the Effect level was 2.

Consider `COc1cc(O)c(Cl)cc1Br` [sr7583], for which the inhibition at 10 µM in assay [1] (setting [11]) was found to be 0%. Moreover, the inhibition at 1 µM in assay [1] (setting [12]) is 0%. In [3], the “Effect level, K. pneumoniae” value is 2. The “Effect level, E. coli” value in assay [5] worked out at 2. The same molecule displayed an Effect level in [6] of 3.

`COc1cc(O)c(I)c(F)c1F` [sr7612]: the Effect level in assay [6] was 2.

With `Oc1cc(Cl)ccc1Oc1ccc(Cl)cc1Cl` [Triclosan, reference compound], the “Δ DO” value in assay [8] (S. aureus Strain 1) worked out at 0.441; in assay [8] (S. aureus Strain 2), 0.459; in [8] (S. aureus Strain 3) it was 0.532; in assay [8] (S. aureus Strain 4) it was 0.490; in assay [9] (K. pneumoniae Strain 1), 0.824; in assay [9] (K. pneumoniae Strain 2) it was 0.893. Moreover, the “Δ DO” value in assay [9] (K. pneumoniae Strain 3) worked out at 1.092; in assay [10] (E. coli Strain 1) it was 1.005; in assay [10] (E. coli Strain 2), 1.197; in assay [10] (E. coli Strain 3) it was 0.948; in [10] (E. coli Strain 4) it was 1.080. Also, the “Effects (0 < 1 < 2 < 3)” value in assay [8] (S. aureus Strain 1), in assay [8] (S. aureus Strain 2), in assay [8] (S. aureus Strain 3), in assay [8] (S. aureus Strain 4), in [9] (K. pneumoniae Strain 1) and in assay [9] (K. pneumoniae Strain 2) was 3 throughout. In addition, the “Effects (0 < 1 < 2 < 3)” value in [9] (K. pneumoniae Strain 3), in assay [10] (E. coli Strain 1), in [10] (E. coli Strain 2), in assay [10] (E. coli Strain 3) and in assay [10] (E. coli Strain 4) was 3 in each case. The inhibition at 1 µM in assay [1] (KB, 72 h) worked out at 5 ± 12%. Moreover, the inhibition at 10 µM in [1] (KB, 72 h) stood at 78 ± 3%.

With `COc1cc(O)c(Cl)c(C)c1Cl` [sr7608], in assay [1] (setting [11]), the inhibition at 10 µM was 7 ± 11%. Moreover, the inhibition at 1 µM in assay [1] (setting [12]) came out at 0%. Moreover, the Effect level in assay [6] was 2.

As for `COc1cc(O)c(Cl)c(Br)c1` [sr7609], the “Effect level, S. aureus” value in assay [2] is 2. The “Effect level, K. pneumoniae” value in assay [3] is 2. For the same molecule, the “Effect level, E. coli” value in assay [5] was determined as 2. Moreover, in assay [6], the Effect level came out at 3. For the same molecule, the “Effect level, S. maltophila” value in assay [7] stood at 2.

`COc1cc(O)c(I)cc1I` [sr7584]: in assay [1] (KB, 72 h), the inhibition at 1 µM amounted to 0% and the inhibition at 10 µM came out at 0%. Besides, in assay [6], the Effect level was determined as 2.

For the molecule `COc1c(Cl)cc(Cl)c(O)c1C` [sr7607], the inhibition at 10 µM in assay [1] (setting [11]) stood at 0%. Besides, in assay [1] (setting [12]), the inhibition at 1 µM was 0%. For the same molecule, the Effect level in assay [6] stood at 2.

On to `COc1cc(O)c(Br)cc1Br` [sr7582], for which, in assay [1] (KB, 72 h), the inhibition at 1 µM was 0% and the inhibition at 10 µM came to 1 ± 7%.

On to `COc1cc(O)c(Cl)cc1F` [sr7581], for which, in assay [1] (setting [11]), the inhibition at 10 µM stood at 0%. Besides, the inhibition at 1 µM in assay [1] (setting [12]) came to 0%.

Regarding `COc1cc(O)c(Br)c(F)c1F` [sr7611], the Effect level in assay [6] amounted to 2.

`COc1c(Cl)cc(Cl)c(O)c1Cl` [sr7586]: the inhibition at 10 µM in [1] (setting [11]) was determined as 0%. The inhibition at 1 µM in assay [1] (setting [12]) turned out to be 6 ± 8%.
